Source: ChEMBL document CHEMBL1201862, “PubChem BioAssay data set” (2004)
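Growth conditions: 96-well plates. Treatment: test compound, 48 hours, 5 concentrations. Analysis: linear interpolation between bracketing concentrations; unreached endpoints set to highest concentration. Here, GI50 denotes the concentration required for 50% inhibition of growth.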 Active and inactive are the calls of the source. Rule as the data show it: active = GI50 up to about 1.1 µM and inactive = higher.

Columns and labels:
Assay in all cases: DTP human tumour cell line panel, 48 h
[1] = tested on: IGROV-1
[2] = tested on: CCRF-CEM
[3] = tested on: NCI-H460
[4] = tested on: CAKI-1
[5] = tested on: OVCAR-4
[6] = tested on: SW-620
[7] = tested on: SN12C
[8] = tested on: LOX IMVI
[9] = tested on: SF-268
[10] = tested on: UACC-62
[11] = tested on: A549
[12] = tested on: SK-MEL-5
[13] = tested on: TK-10
[14] = tested on: MDA-MB-231
[15] = tested on: SF-295
[16] = tested on: M14
[17] = tested on: SR
[18] = tested on: SNB-75
[19] = tested on: SNB-19
[20] = tested on: HCT-116
[21] = tested on: SK-OV-3
[22] = tested on: RXF 393
[23] = tested on: MOLT-4
[24] = tested on: OVCAR-8
[25] = tested on: NCI/ADR-RES
[26] = tested on: COLO 205
[27] = tested on: BT-549
[28] = tested on: HCC 2998
[29] = tested on: OVCAR-5
[30] = tested on: SF-539
[31] = tested on: KM12
[32] = tested on: UACC-257
[33] = tested on: NCI-H522
[34] = tested on: PC-3
[35] = tested on: EKVX
[36] = tested on: ACHN
[37] = tested on: MDA-N
[38] = tested on: HCT-15
[39] = tested on: Hs-578T
[40] = tested on: HT-29
[41] = tested on: Malme-3M
[42] = tested on: 786-0
[43] = tested on: UO-31
[44] = tested on: HOP-62
[45] = tested on: K562
[46] = tested on: MCF7
[47] = tested on: OVCAR-3
[48] = tested on: NCI-H23
[49] = tested on: HL-60
[50] = tested on: T47D
[51] = tested on: MDA-MB-435
[52] = tested on: SK-MEL-2
[53] = tested on: DU-145
[54] = tested on: NCI-H226
[55] = tested on: U-251
[56] = tested on: RPMI-8226
[57] = tested on: SK-MEL-28
[58] = tested on: HOP-92
[59] = tested on: A498

COc1ccc(CNc2nc3cc(C(F)(F)F)ccc3nc2-c2ccccc2)cc1OC
GI50 [1]: 66.7 µM (inactive) | GI50 [2]: 22.6 µM (inactive) | GI50 [3]: 19.5 µM (inactive) | GI50 [4]: 18 µM (inactive) | GI50 [5]: 43.1 µM (inactive) | GI50 [6]: 18.5 µM (inactive) | GI50 [7]: > 10 µM (inactive) | GI50 [8]: 24.7 µM (inactive) | GI50 [9]: 62.8 µM (inactive) | GI50 [10]: 50.6 µM (inactive) | GI50 [11]: 26.9 µM (inactive) | GI50 [12]: 17.9 µM (inactive) | GI50 [13]: 53.2 µM (inactive) | GI50 [14]: 53.8 µM (inactive) | GI50 [15]: 29.4 µM (inactive) | GI50 [16]: 49.3 µM (inactive) | GI50 [17]: 15.3 µM (inactive) | GI50 [18]: 37.3 µM (inactive) | GI50 [19]: > 100 µM (inactive) | GI50 [20]: 30.3 µM (inactive) | GI50 [21]: > 100 µM (inactive) | GI50 [22]: 22.8 µM (inactive) | GI50 [23]: 25.5 µM (inactive) | GI50 [24]: 54.6 µM (inactive) | GI50 [25]: 54.5 µM (inactive) | GI50 [26]: 35.1 µM (inactive) | GI50 [27]: 47.5 µM (inactive) | GI50 [28]: 22.6 µM (inactive) | GI50 [29]: 71.1 µM (inactive) | GI50 [30]: 45.9 µM (inactive) | GI50 [31]: 29.5 µM (inactive) | GI50 [32]: 28.4 µM (inactive) | GI50 [33]: 36.1 µM (inactive) | GI50 [34]: 28.2 µM (inactive) | GI50 [35]: 18.7 µM (inactive) | GI50 [36]: 23.8 µM (inactive) | GI50 [37]: 37.2 µM (inactive) | GI50 [38]: 28.2 µM | GI50 [39]: 25.2 µM (inactive) | GI50 [40]: 21.1 µM (inactive) | GI50 [41]: 45.6 µM (inactive) | GI50 [42]: 33.4 µM (inactive) | GI50 [43]: 23.7 µM (inactive) | GI50 [44]: 23.9 µM (inactive) | GI50 [45]: 26.1 µM (inactive) | GI50 [46]: 16.1 µM (inactive) | GI50 [47]: 96.8 µM (inactive) | GI50 [48]: 20.8 µM (inactive) | GI50 [49]: 34 µM (inactive) | GI50 [50]: 24.3 µM (inactive) | GI50 [51]: 25.5 µM (inactive) | GI50 [52]: 68.9 µM (inactive) | GI50 [53]: 87.5 µM (inactive)

COc1ccc(/N=C2/SC(=N/N=c3\sc4ccccc4n3C)S/C2=N/c2ccc(OC)cc2)cc1
GI50 [1]: > 100 µM (inactive) | GI50 [3]: > 100 µM (inactive) | GI50 [4]: > 100 µM (inactive) | GI50 [6]: > 100 µM (inactive) | GI50 [7]: > 100 µM (inactive) | GI50 [9]: > 100 µM (inactive) | GI50 [10]: 37.6 µM (inactive) | GI50 [11]: 20.4 µM (inactive) | GI50 [12]: 98.9 µM (inactive) | GI50 [13]: > 100 µM (inactive) | GI50 [14]: 2.97 µM (inactive) | GI50 [15]: 51.8 µM (inactive) | GI50 [54]: 49 µM (inactive) | GI50 [16]: > 100 µM (inactive) | GI50 [17]: > 100 µM (inactive) | GI50 [18]: 24.6 µM (inactive) | GI50 [19]: > 100 µM (inactive) | GI50 [20]: 29.8 µM (inactive) | GI50 [21]: 76.7 µM (inactive) | GI50 [22]: 34 µM (inactive) | GI50 [55]: 55.5 µM (inactive) | GI50 [23]: 13.1 µM (inactive) | GI50 [24]: > 100 µM (inactive) | GI50 [25]: > 100 µM (inactive) | GI50 [26]: > 100 µM (inactive) | GI50 [56]: > 100 µM (inactive) | GI50 [27]: 67.9 µM (inactive) | GI50 [57]: > 100 µM (inactive) | GI50 [28]: > 100 µM (inactive) | GI50 [29]: > 100 µM (inactive) | GI50 [30]: > 100 µM (inactive) | GI50 [31]: > 100 µM (inactive) | GI50 [32]: > 100 µM (inactive) | GI50 [33]: 70.8 µM (inactive) | GI50 [34]: > 100 µM (inactive) | GI50 [35]: > 100 µM (inactive) | GI50 [58]: 89.1 µM (inactive) | GI50 [36]: 36.8 µM (inactive) | GI50 [37]: > 100 µM (inactive) | GI50 [38]: > 100 µM | GI50 [39]: 36.2 µM (inactive) | GI50 [40]: > 100 µM (inactive) | GI50 [41]: > 100 µM (inactive) | GI50 [42]: 47.3 µM (inactive) | GI50 [43]: > 100 µM (inactive) | GI50 [44]: 31.6 µM (inactive) | GI50 [45]: 2.92 µM (inactive) | GI50 [46]: > 100 µM (inactive) | GI50 [47]: > 100 µM (inactive) | GI50 [48]: 41.9 µM (inactive) | GI50 [50]: 23.3 µM (inactive) | GI50 [51]: > 100 µM (inactive) | GI50 [52]: > 100 µM (inactive) | GI50 [53]: > 100 µM (inactive)

Cc1ccc2c(c1C)CC1(Cc3c(ccc4c3CCC4)C1=O)C2=O (stereo not drawn)
GI50 [1]: > 100 µM (inactive) | GI50 [2]: > 100 µM (inactive) | GI50 [3]: > 100 µM (inactive) | GI50 [4]: > 100 µM (inactive) | GI50 [5]: > 100 µM (inactive) | GI50 [6]: > 100 µM (inactive) | GI50 [7]: > 100 µM (inactive) | GI50 [59]: > 100 µM (inactive) | GI50 [9]: > 100 µM (inactive) | GI50 [10]: > 100 µM (inactive) | GI50 [11]: > 100 µM (inactive) | GI50 [12]: > 100 µM (inactive) | GI50 [13]: > 100 µM (inactive) | GI50 [14]: > 100 µM (inactive) | GI50 [15]: > 100 µM (inactive) | GI50 [54]: > 100 µM (inactive) | GI50 [16]: 52.4 µM (inactive) | GI50 [18]: 51.6 µM (inactive) | GI50 [19]: > 100 µM (inactive) | GI50 [20]: > 100 µM (inactive) | GI50 [21]: > 100 µM (inactive) | GI50 [22]: > 100 µM (inactive) | GI50 [55]: > 100 µM (inactive) | GI50 [23]: > 100 µM (inactive) | GI50 [24]: > 100 µM (inactive) | GI50 [25]: > 100 µM (inactive) | GI50 [26]: > 100 µM (inactive) | GI50 [56]: > 100 µM (inactive) | GI50 [27]: > 100 µM (inactive) | GI50 [57]: > 100 µM (inactive) | GI50 [28]: > 100 µM (inactive) | GI50 [29]: > 100 µM (inactive) | GI50 [30]: 0.652 µM (active) | GI50 [31]: > 100 µM (inactive) | GI50 [32]: > 100 µM (inactive) | GI50 [33]: > 100 µM (inactive) | GI50 [34]: 62.2 µM (inactive) | GI50 [35]: > 100 µM (inactive) | GI50 [58]: > 100 µM (inactive) | GI50 [36]: > 100 µM (inactive) | GI50 [37]: > 100 µM (inactive) | GI50 [38]: > 100 µM | GI50 [39]: > 100 µM (inactive) | GI50 [40]: > 100 µM (inactive) | GI50 [41]: > 100 µM (inactive) | GI50 [42]: > 100 µM (inactive) | GI50 [43]: > 100 µM (inactive) | GI50 [45]: > 100 µM (inactive) | GI50 [46]: 21.9 µM (inactive) | GI50 [47]: 65.9 µM (inactive) | GI50 [48]: > 100 µM (inactive) | GI50 [49]: > 100 µM (inactive) | GI50 [50]: > 100 µM (inactive) | GI50 [51]: 46.3 µM (inactive) | GI50 [52]: > 100 µM (inactive) | GI50 [53]: > 100 µM (inactive)
